Data published in patent US11643665B2, “Nucleotide sequences encoding Fasciated EAR3 (FEA3) and methods of use thereof” (CORTEVA AGRISCIENCE LLC, priority 2012, dated 2023).
Where no end group is shown, it is not given here.

Assays:
Format in all cases: in vivo, maize
[1] = system: Wt and fea3 embryos; assay: Embryo culture assay in presence of FCP1 peptide (embryo SAM growth); details: 20 μM peptide, two weeks after planting
Protocol: Wt and fea3 embryos were cultured in the presence of 20 μM FCP1 peptide (SEQ ID NO:33) or 20 μM scrambled peptide. For measurement of embryo SAM growth, about 10 days after pollination, embryos were sterilized (whole corn was sterilized, not individual young seeds) and dissected embryos and put the embryos down on the media and the measurement of SAM size was done two weeks after planting (embryo culture).

[2] = system: B73 and fea3 mutant seedlings; assay: Clavata3-like peptide root assay (primary root length of seedlings on agar plates); details: 5 μM or 10 μM peptide, after 7 days
Protocol: To analyze whether FEA3 responds to CLV3-like peptides, and determine if they act in a common pathway, a CLV3 peptide assay was performed. The peptides used were ZCL3 (Zea mays CLE-like 3; SEQ ID NO:32), FCP1 (SEQ ID NO:33), CLV3 (SEQ ID NO:34), CLE20 (SEQ ID NO:35), CLE40 (SEQ ID NO:36), ZCL21 ([…]; SEQ ID NO:37), and ZCL23 (Zea mays CLE-like 23; SEQ ID NO:38).
The ZCL peptides were found in maize sequences in the NCBI database by homology search using the CLV3, CLE, and rice related peptides (Fiers et al Plant Cell (2005), 17: 2542-2553; Suzaki et al (2008), Plant Cell, 20: 2049-2058).
B73 and fea3 mutant seedlings were germinated and grown on agar plates containing each 5 μM or 10 μM peptide. As a control, seedlings were also grown on plates containing a scramble of the peptide. After 7 days the length of the primary root was measured.

[3] = system: B73 and homozygous fea2 and fea3 mutant seedlings; assay: Clavata3 peptide root assay (primary root length of seedlings on agar plates); details: agar plates containing CLV3 peptide, after 7 days
Protocol: In Arabidopsis, CLAVATA2 activity can be detected by responses of root growth to CLAVATA3 (CLV3) peptide. To analyze whether FEA3 and FEA2 respond to CLV3, and determine if they act in a common pathway a CLV3 peptide assay was performed. B73 and homozygous fea2 and fea3 mutant seedlings were germinated and grown on agar plates containing CLV3 peptide. As a control, seedlings were also grown on plates containing a mutated version of the peptide and on plates without any peptide. After 7 days the length of the primary root was measured.

FCP1: CLV3-like peptide used for the CLV3/CLV3-like peptide assay (REVPTGPDPIHH; listed as Oryza sativa)
embryo SAM growth (SAM size) ([1]; WT embryos): strongly inhibited | embryo SAM growth (SAM size) ([1]; fea3 embryos): resistance | root growth response (length of the primary root) ([2]; B73 wild type plants): strong root growth inhibition | root growth response (length of the primary root) ([2]; fea3 mutants): less sensitivity

ZCL3: Zea mays CLE-like 3 peptide, found in maize sequences by homology search using CLV3, CLE and rice related peptides (RPVPSGPDPIHH; Zea mays)
root growth response (length of the primary root) ([2]; B73 wild type plants): strong root growth inhibition

CLV3: CLAVATA3 (CLV3) peptide (RTVPSGPDPLHH; ends and bridges not checked; listed as Arabidopsis thaliana)
root growth response (length of the primary root) ([3]; B73 wild type plants): strong root growth inhibition | root growth response (length of the primary root) ([3]; homozygous fea2 mutants): do not respond | root growth response (length of the primary root) ([3]; homozygous fea3 mutants): respond | root growth response (length of the primary root) ([2]; B73 wild type plants): strong root growth inhibition
